This is an account of results in patent US20260216138A1, “IDENTIFICATION OF OTUD7B INHIBITOR 7BI AND ITS APPLICATION IN REDUCING GROWTH OF NSCLC AND LEUKEMIA CELLS” (The University of North Carolina at Chapel Hill, priority 2023, published 2026).

What all share (format): cell-based
Experiment [1] concerns HEK293 cells. The experiment is described as follows: Cell viability by MTT assay in HEK293 cells. The following applies: 72 hrs. As to the method: (§1) 2,000 cells from indicated NSLC cell lines were seeded into each well of 96-well plates. Cell viability was measured 3 days post-treatment using MTT assays following manufacturer's instruction. For cell viability assays with inhibitor treatment, 2,000 cells from indicated NSLC and HEK293 cell lines were seeded in 96-well plate. Inhibitor was added the next day at indicated concentration and cell viability was measured after 3-day treatment. For cell proliferation assays in THP1, K562 and HL60 cell lines, 1×10^6 cells from each indicated cell line were seeded in 12.5 cm2 cell culture flask and cells were counted by hemocytometer under microscope at indicated time to monitor cell proliferation. To test inhibitor effects on THP1, K562 and HL60 cell growth, 2×10^5 cells were seeded in 12.5 cm2 cell culture flask. Inhibitor was added the next day at indicated concentrations and cell number was counted after 3 days treatment. Three independent experiments were performed to generate error bars.
(Tetrazolium assays rely on reduction of a dye to a coloured formazan, in cell work by metabolically active cells.)

Experiment [2] concerns HL60 cells. The experiment is described as follows: Leukemia cell proliferation, HL60. The following applies: 72 hrs. As to the method:
as §1

The test system of experiment [3] is H1299 cells. The experiment is described as follows: Colony formation / growth of H1299 cells. As to conditions: treated once for 10 days. The protocol: 500 cells from OTUD7B depleted A549 cells were seeded into each well of 6-well plates and cultured in the 37° C. incubator with 5% CO2 for 10-15 days until formation of visible colonies. Triplicates were performed. To test the effect of a given inhibitor on colony formation ability, 800 cells from A549, H520 and H1299 cell lines were seeded into each well of 6-well plates, respectively. Each inhibitor was added at indicated concentration the next day. Colonies were counted after 10 days of treatment. The colony staining method was as described. […] Colony numbers were counted manually. […]
as §1, with “For cell viability assays with inhibitor treatment, 2,000 cells from indicated NSLC and HEK293 cell lines were seeded in 96-well plate.” left out, “To test inhibitor effects on THP1, K562 and HL60 cell growth, 2×10^5 cells were seeded in 12.5 cm2 cell culture flask.” left out, “Three independent experiments were performed to generate error bars.” left out

Experiment [4] has as its system Akt-pS473. The experiment is described as follows: Akt-pS473 immunoblot in leukemia cells (HL60, K562, THP1). As to conditions: indicated doses, 16 hrs. As to the method: (§2) Cells were harvested and lysed in EBC buffer (50 mM Tris pH 7.5, 120 mM NaCl, 0.5% NP-40) supplemented with protease inhibitor cocktail (EDTA-free, mini-tablet) (Bimake) and phosphatase inhibitor cocktail (Bimake) by rotating in the cold room for 10 min followed by high-speed centrifugation at 4° C. The protein concentrations in supernatants of whole cell lysates were measured by NanoDrop OneC using the Bio-Rad Bradford protein assay reagent. Equal amounts of whole cell lysates were resolved on SDS-PAGE and immunoblotted with indicated antibodies. For immunoprecipitation analysis, 1 mg of total cell lysate was incubated with the indicated beads for 3-4 hr at 4° C. The recovered immuno-complexes were washed thoroughly three times with NETN buffer (20 mM Tris, pH 8.0, 100 mM NaCl, 1 mM EDTA and 0.5% NP-40) before being resuspended in SDS sample buffer and resolved on SDS-PAGE and immunoblotted with indicated antibodies.
In addition to NSCLC, overexpression of OTUD7B was also observed in diffuse large B-cell lymphoma and served as a prognostic marker. This promoted us to examine roles of OTUD7B in leukemia cells. […] Similar to NSCLC cells, depletion of OTUD7B in K562 cells also led to increased K63-linked GβL ubiquitination (FIG. 4D). Consistent with a reduction in Akt-pS473 signals, OTUD7B depletion reduced the growth of THP1 (FIG. 4E), K562 (FIG. 4F) and HL60 (FIG. 4G) cells in vitro.
In general terms: In western blotting, separated proteins are transferred to a membrane and probed.

In experiment [5] the test system is THP1 cells. The experiment in a line: Leukemia cell proliferation, THP1. The following applies: 72 hrs. As to the method:
as §1

In experiment [6] the test system is K63-linked ubiquitination of GβL. The experiment is described as follows: Endogenous K63-linked GβL ubiquitination (GβL-IP). The following applies: 16 hrs. The protocol: as §2
In experiment [7] the test system is Akt-pS473. The experiment in a line: Akt-pS473 western blotting in NSCLC cells (A549, H358, H520, H1299). The protocol:
as §2
Next, we used two approaches to search for possible OTUD7B inhibitors by monitoring Akt-pS473 changes including Akt-pS473 ELISA and western blotting in A549 cells treated with each of these 59 small molecules for 16 hrs at a concentration of 10 uM (FIG. 1A). In Akt-pS473 ELISA assays using Torin 2 (a pan-mTOR inhibitor) as a positive control and DMSO as a negative control (FIG. 1E), we found 15 compounds with an inhibitory ability above 30% (FIG. 1F). […]

One may read the IC50 as the midpoint of a concentration-inhibition curve. As to `Cc1cc(NC(=O)c2cnn(C)c2C(=O)Nc2cc(C)nn2C2CCCC2)n(C2CCCC2)n1` [7Bi], in experiment [1], the “cell growth (MTT)” value is given as “reduced growth”. Moreover, the cell proliferation entry in experiment [2] and in experiment [5] was “reduced proliferation” throughout. In addition, the cell growth result in experiment [3] was “reduced growth”. For the same molecule, the Akt-pS473 signals entry in experiment [4] (HL60 cells), in experiment [4] (K562 cells) and in experiment [4] (THP1 cells) was “reduced Akt-pS473 signals” throughout. Also, the “K63-linked ubiquitination of GβL at endogenous levels” value in experiment [6] (A549 cells) is “increased K63-linked ubiquitination of GβL at endogenous levels”. Besides, in experiment [6] (K562 cells), the “K63-linked GβL ubiquitination at endogenous levels” value is given as “increased K63-linked GβL ubiquitination at endogenous levels”. Also, the “suppressing Akt-pS473 signal in at least 3 out of 4 NSCLC lines tested” value in experiment [7] (A549, H358, H520, H1299, 10 uM for 16 hrs, dose- and time-dependent) is “showed effects in suppressing Akt-pS473 signal”. Moreover, the IC50 in experiment [7] (NSCLC cells, read-out: IC50 values to inhibit Akt-pS473 signals) is 1 to 10 µM.
